Assays:
[1] = test system: MPTP-treated common marmoset; assay: Anti-dyskinesia activity: LID score in MPTP-treated common marmoset model with repeated L-DOPA; format: in vivo; conditions: L-DOPA-induced dyskinesia (LID) score, test compound plus L-DOPA vs vehicle plus L-DOPA, 4 animals per group
From the text: Parkinson's disease is characterized by degeneration and neuronal cell death of the nigrostriatal dopaminergic neurons. In primates, treatment with a dopamine neurotoxin, 1-methyl-4-phenyl-1,2,3,6-tetrahydropyridine (hereinafter referred to as “MPTP”), causes selective degeneration and loss of the nigrostriatal dopaminergic neurons, showing akinesia, rigidity, etc. These MPTP-treated primates are known as a model of Parkinson's disease [Proceedings of the National Academy of Science USA, Vol. 80, p. 4546 (1983)]. Common marmoset belongs to Anthropoidea and is known to show Parkinsonian symptoms caused by MPTP treatment as in the case of other Anthropoidea [Neuroscience Letter, Vol. 57, p. 37 (1985)). On the other hand, current treatment for Parkinson's disease is based primarily on dopamine replacement therapy by administration of L-DOPA. The administration of L-DOPA is effective treatment of symptoms associated with Parkinson's disease (anti-Parkinson activity). However, the long-term therapy using L-DOPA is known to cause loss of medicinal efficacy (wearing off and on-off), dyskinesia, psychosis, etc. Particularly, L-DOPA-induced dyskinesia (hereinafter referred to as “LID”) has become an issue due to the frequency of its development and the pain of the patients. […] 731 (1995)].
This test was carried out using 4 animals per group of female and male common marmosets of 5 to 7 years of age (300 to 375 g in body weight, CLEA Japan). MPTP (RBI) was dissolved in physiological saline for injection (Otsuka Pharmaceutical Co., Ltd.) and subcutaneously administered to each common marmoset once a day for 5 days in a dose of 2.0 mg/kg. More than six weeks after the administration, animals showing chronic symptoms of Parkinson's disease were used to prepare a model of dyskinesia. […] The locomotor activity was measured at 10-minute intervals for 12 hours by a computer-controlled automatic measuring apparatus. […]

α2C-adrenoceptor = molecular target: T1, α2C-adrenoceptor (Homo sapiens, UniProt P18825); conditions: described in J. Pharmacol. Exp. Ther. 271, 1558 (1994) and Proc. Natl. Acad. Sci. USA 85, 6301 (1988); cited from earlier work
T1 sequence (P18825 1-462): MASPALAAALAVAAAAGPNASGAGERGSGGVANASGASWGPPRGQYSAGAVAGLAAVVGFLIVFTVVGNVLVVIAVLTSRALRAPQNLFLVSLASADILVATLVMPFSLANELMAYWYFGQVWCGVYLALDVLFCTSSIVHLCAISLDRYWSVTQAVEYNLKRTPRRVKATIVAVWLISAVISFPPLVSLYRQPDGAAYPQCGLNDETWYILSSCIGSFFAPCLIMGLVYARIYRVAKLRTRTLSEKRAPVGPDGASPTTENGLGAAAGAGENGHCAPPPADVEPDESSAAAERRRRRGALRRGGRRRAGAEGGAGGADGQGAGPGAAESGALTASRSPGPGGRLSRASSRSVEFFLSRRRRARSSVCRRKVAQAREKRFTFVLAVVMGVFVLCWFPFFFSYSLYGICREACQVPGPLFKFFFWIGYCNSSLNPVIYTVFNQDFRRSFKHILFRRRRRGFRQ

melting point [°C]	SMILES	anti-dyskinesia activity [1]	affinity to α2C-adrenoceptor (α2C-adrenoceptor)
168.7 to 169.2	Nc1ncc(CN2CCN(Cc3ccncc3)CC2)c2nc(-c3ccco3)nn12 [Compound 35, 5-Amino-2-(2-furyl)-8-[4-(4-pyridylmethyl)piperazin-1-ylmethyl][1,2,4]triazolo[1,5-c]pyrimidine]		
	CC1c2ccccc2CN1CC1=NCCN1 (stereo not shown) [BRL44408]	did not show anti-dyskinesia activity	low affinity
	COc1ccccc1N1CCN(CCN2C(=O)c3ccccc3C(C)(C)C2=O)CC1 [ARC239]	showed anti-dyskinesia activity	having an affinity to α2C-adrenoceptor
	c1ccc2c(c1)OCC(C1=NCCN1)O2 (stereo not shown) [idazoxan]	showed anti-dyskinesia activity	having an affinity to α2C-adrenoceptor

Reference: patent US20040110826A1, “Receptor Antagonists” (priority 2001, published 2004)
